Values of other authors in patent US20220125818A1, “COMPOSITIONS AND METHODS FOR TREATMENT OF A CORONAVIRUS DISEASE (COVID-19) INFECTION” (priority 2020, published 2022).

Target: T1, COX-1 (Homo sapiens, UniProt P23219)
T1 construct: endogenous in cells; host or cells: platelets (in vivo)
Conditions: average platelet lifespan

T1 sequence (P23219 24-599): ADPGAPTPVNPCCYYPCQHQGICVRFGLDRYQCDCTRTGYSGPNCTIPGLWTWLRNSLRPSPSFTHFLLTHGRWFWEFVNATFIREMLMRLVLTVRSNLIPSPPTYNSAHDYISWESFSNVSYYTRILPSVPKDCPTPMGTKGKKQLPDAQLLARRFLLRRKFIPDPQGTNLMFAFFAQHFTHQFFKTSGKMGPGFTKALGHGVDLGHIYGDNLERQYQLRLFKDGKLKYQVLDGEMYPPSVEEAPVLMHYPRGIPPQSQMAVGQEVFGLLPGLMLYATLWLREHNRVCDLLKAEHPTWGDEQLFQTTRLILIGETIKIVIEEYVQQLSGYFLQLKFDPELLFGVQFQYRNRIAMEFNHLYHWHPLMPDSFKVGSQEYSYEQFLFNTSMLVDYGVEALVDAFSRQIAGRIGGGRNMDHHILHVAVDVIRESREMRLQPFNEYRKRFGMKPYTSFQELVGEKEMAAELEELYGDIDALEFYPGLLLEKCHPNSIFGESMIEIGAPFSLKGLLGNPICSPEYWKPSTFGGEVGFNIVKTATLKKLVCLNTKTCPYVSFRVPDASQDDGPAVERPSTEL

CC(=O)Oc1ccccc1C(=O)O [Aspirin®, Acetylsalicylic acid]
duration of inhibition of platelet aggregation: 7 to 10 days
